Data taken from publication PMC3288109, “γ-Aminobutyric Acid Transporter 2 Mediates the Hepatic Uptake of Guanidinoacetate, the Creatine Biosynthetic Precursor, in Rats” (PLoS ONE, 2012).
Values belong to the molecule of their own block, whether it stands above or below them.

What was measured:
[1] = target: T1, GAT2 (γ-aminobutyric acid transporter 2, SLC6A13) (Rattus norvegicus, UniProt P31646); assay: cell-based; design: rat GAT2 open reading frame cRNA expressed in Xenopus laevis oocytes; species or system Xenopus laevis oocytes; Inhibition of [14C]GAA (45 uM) uptake by rat GAT2 cRNA-injected oocytes, 20 C, scintillation counting; conditions: Oocyte; [14C]GAA 45 uM, 1 h, 20 C; read-out: % of control / 100±7
T1 sequence (P31646 1-602): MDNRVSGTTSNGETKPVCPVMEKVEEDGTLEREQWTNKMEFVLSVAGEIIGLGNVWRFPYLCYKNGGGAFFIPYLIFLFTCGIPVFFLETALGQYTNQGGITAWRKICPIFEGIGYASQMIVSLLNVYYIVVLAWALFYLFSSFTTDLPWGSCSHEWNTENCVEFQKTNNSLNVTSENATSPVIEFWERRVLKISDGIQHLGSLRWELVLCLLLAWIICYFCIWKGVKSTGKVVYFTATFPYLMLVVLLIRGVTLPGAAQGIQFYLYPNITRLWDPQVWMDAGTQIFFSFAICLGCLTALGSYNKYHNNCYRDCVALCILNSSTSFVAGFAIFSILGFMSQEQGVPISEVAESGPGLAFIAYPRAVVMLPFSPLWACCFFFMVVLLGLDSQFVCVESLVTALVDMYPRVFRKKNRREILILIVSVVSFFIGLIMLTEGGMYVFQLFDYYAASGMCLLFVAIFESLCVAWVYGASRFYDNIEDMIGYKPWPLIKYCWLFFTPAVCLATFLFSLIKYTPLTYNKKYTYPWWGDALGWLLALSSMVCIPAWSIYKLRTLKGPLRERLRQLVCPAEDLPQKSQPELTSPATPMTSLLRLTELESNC
Protocol: Using T7 RNA polymerase, capped cRNA was transcribed from NotI-linearized pGEM-HEN containing an open reading frame of rat GAT2 cDNA. Defolliculated oocytes were injected with 23 nL water or the capped cRNA (30–50 ng) and incubated at 18°C in freshly prepared standard oocyte saline solution containing 100 mM NaCl, 2 mM KCl, 1.8 mM CaCl2, 1 mM MgCl2, and 5 mM HEPES, 25 µg/mL gentamycin, 2.5 mM pyruvate and 1% bovine serum albumin, pH 7.5. The standard oocyte saline solution used to incubate the oocytes was replaced with fresh solution daily. Experiments were performed after incubation for 4 to 6 days. For the uptake study by Xenopus laevis oocytes, oocytes were preincubated with 500 µL ND96 solution containing (in mM) 96 NaCl, 2 KCl, 1.8 CaCl2, 1 MgCl2, and 5 HEPES for 20 min at 20°C before the uptake experiment. The uptake experiment was initiated by replacing the ND96 solution with 200 µL of the same solution containing [^14C]GAA (45 µM) […] [^14C]creatine (45 µM). After incubation for a designated time at 20°C, the uptake was terminated by addition of ice-cold ND96 solution. […] The inhibitory effects of GAT substrates and inhibitors on the [^14C]GAA uptake were further examined (Figure 3B and Table 3).

[2] = test system: T2, freshly isolated rat hepatocytes; assay: cells; design: species or system primary rat hepatocytes; Inhibition of [14C]GAA (18 uM) uptake by freshly isolated rat hepatocytes, 37 C, scintillation counting; conditions: Hepatocyte, 0.05 h, [14C]GAA 18 uM, 3 min, 37 C, read-out: % of control remaining
T2 construct: Wistar primary hepatocytes, collagenase perfusion
Text: Rat hepatocytes were isolated by collagenase perfusion and Percoll isodensity centrifugation as described previously. The hepatocytes were resuspended in Tyrode buffer containing (in mM) 137 NaCl, 2.7 KCl, 1.05 MgCl2, 1.8 CaCl2, 12 NaHCO3, 0.4 NaH2PO4, and 5.6 D-glucose. Uptake of [^14C]GAA or [^14C]creatine by the freshly isolated hepatocytes was examined according to the methods described previously. In brief, after centrifugation and aspiration of the buffer, uptake was initiated by applying 100 µL Tyrode buffer containing [^14C]GAA or [^14C]creatine at 37°C in the presence or absence of inhibitors. Na^+-free Tyrode buffer was prepared by replacement of NaCl, NaH2PO4 and NaHCO3 with equimolar N-methyl-D-glucamine, KH2PO4, and KHCO3, respectively. Cl^−-free uptake buffer was prepared by replacement with equimolar gluconate. After a predetermined period, uptake was terminated by centrifugation of the solution. The cells were then solubilized in 1 N NaOH and subsequently neutralized with 1 N HCl. The cell-associated radioactivity and protein content were assayed by [compound left out] scintillation spectrometry and detergent compatible protein assay (a DC protein assay kit, Bio-Rad, Hercules, CA) with bovine serum albumin as a standard. […] In contrast, there was no time-dependent increase in [^14C]creatine uptake by hepatocytes (Figure 2A). […] The [^14C]GAA uptake took place in a concentration-dependent manner and consisted of a single saturable component (Figure 2B). […] In contrast, creatinine, betaine, guanidinosuccinic acid, L-arginine, L-alanine, and L-serine had much weaker effects. GABA, taurine, and creatine inhibited the [^14C]GAA uptake in a concentration-dependent manner with an IC50 value of 8.81±1.33 µM, 1.13±0.30 mM, and 1.42±0.53 mM, respectively (Figure 2C–E). […] Among the GAT subtypes, GAT2 is predominantly expressed in rat liver. […] [^14C]GAA uptake was reduced by 46.4% in GAT2-silenced hepatocytes corresponding to the reduction in GAT2 protein (Figure 2F).

[3] = target: T1, GAT2 (γ-aminobutyric acid transporter 2, SLC6A13); type: cell-based; conditions: xenopus oocytes
[4] = substrate: N=C(N)NCC(=O)O; assay: cells, lysate or membranes; type: cell-based, Rattus norvegicus; conditions: Na+ and Cl-

Molecule: NCCS(=O)(=O)O [Taurine]
remaining activity at 5000 µM [1]: 16.6 ± 4.4%

Molecule: N[C@@H](CO)C(=O)O [L-Serine]
activity at 2000 µM [2]: 83.8 ± 6.4%

Molecule: O=C(O)C1CCCNC1 (stereo not drawn) [Nipecotic acid]
activity at 2000 µM [2]: 30.8 ± 1.2%
remaining activity at 5000 µM [1]: 11.9 ± 1.5%

Molecule: CN1CC(=O)NC1=N [Creatinine]
activity at 2000 µM [2]: 75.3 ± 8.9%
remaining activity at 5000 µM [1]: 147 ± 18%

Molecule: [H]/N=C(/N)NCC(=O)O [Guanidinoacetic acid]
activity at 2000 µM [2]: 24.1 ± 1.1%

Molecule: NCC(=O)O [Glycine]
activity at 2000 µM [2]: 54.4 ± 11.2%

Molecule: NCCC(=O)O [β-Alanine]
activity at 2000 µM [2]: 28.5 ± 5.5%

B1: GAT2 (γ-aminobutyric acid transporter 2, SLC6A13) (Rattus norvegicus) (protein)
chain: T1 sequence (P31646 1-602)
notes: rat GAT2 open reading frame cRNA expressed in Xenopus laevis oocytes
Km [4]: 78.9 µM

More lines, main results first:

remaining activity at 5000 µM [1]: 137 ± 15%
Molecule: N=C(N)NCCC[C@H](N)C(=O)O [L-Arginine]
activity at 2000 µM [2]: 74.9 ± 11.1%

[14C]creatine uptake by GAT2-expressing oocytes; also 57.3% of control [14C]GAA [3]: 28 fold over water-injected oocytes
remaining activity at 5000 µM [1]: 57.3 ± 8.3%
Molecule: CN(CC(=O)O)C(=N)N [Creatine]

remaining activity at 5000 µM [1]: 2.35 ± 0.23%
Molecule: N=C(N)NCCCC(=O)O [γ-Guanidinobutyric acid]

remaining activity at 5000 µM [1]: 0.81 ± 0.07%
Molecule: [H]/N=C(\N)NCCC(=O)O [β-Guanidinopropionic acid]
activity at 2000 µM [2]: 18.9 ± 0.9%

remaining activity at 5000 µM [1]: 11 ± 1.2%
Molecule: N=C(N)NCCS(=O)(=O)O [Guanidinoethansulfonic acid]
activity at 2000 µM [2]: 33 ± 4.4%

remaining activity at 5000 µM [1]: 138 ± 18%
Molecule: C[C@H](N)C(=O)O [L-Alanine]
activity at 2000 µM [2]: 59.6 ± 7.8%

remaining activity at 5000 µM [1]: 1.74 ± 0.44%
Molecule: NCCCC(=O)O [GABA]
activity at 2000 µM [2]: 17.1 ± 1.6%

remaining activity at 5000 µM [1]: 96.7 ± 7.4%
Molecule: C[N+](C)(C)CC(=O)O [Betaine]
activity at 2000 µM [2]: 64.4 ± 8.7%

remaining activity at 5000 µM [1]: 148 ± 11%
Molecule: NC(N)=N[C@@H](CC(=O)O)C(=O)O [Guanidinosuccinic acid]
activity at 2000 µM [2]: 71.2 ± 5.1%
